In patent publication US20240002326A1, “COMPOUNDS AND USE THEREOF IN METHODS OF TREATMENT” (The University of Queensland, priority 2016, published 2024):

Molecular target: full-length mouse SOX18 (Mus musculus (Mouse), UniProt P43680)
Assay: FP DNA-binding competition assay, full-length SOX18
Settings: full-length mouse SOX18, Prox1-DNA probe; for IC50: read-out: FP IC50 ± SD
Procedure: Full-length mouse SOX18. A N-terminally tagged mouse HIS-GST-SOX18 was recombinantly expressed in Sf9 cells, purified on GST resin (GE Healthcare Life Sciences, Sweden) and eluted in Tris buffer (50 mM Tris, 500 mM NaCl, 10 mM reduced glutathione, pH 8.0). cDNA clone of mouse Sox18 was PCR amplified and cloned into the pOPIN-GST vector, to generate N-terminally tagged HIS-GST-SOX18. A sequence verified construct was co-transfected with flashBACULTRA (Oxford Expression Technologies, Oxford, United Kingdom) baculovirus DNA onto Spodoptera frugiperda Sf9 cells to obtain recombinantly expressed HIS-GST-SOX18. High Five cells (BTI-TN-5B1-4) in Sf-900™ II serum-free medium were infected at cell density of 1.5×10^6 cells/mL with a multiplicity of infection (MOI) of 5 PFU/cell, and incubated at 21° C. for 144 h before harvest. The cell pellet from 100 mL of expression culture was resuspended in 30 mL of phosphate lysis buffer (50 mM sodium phosphate, 500 mM sodium chloride, 1% Triton X-100, 2 mM magnesium chloride, one tablet of cOmplete Protease Inhibitor Cocktail, pH 7.5) and sonicated on ice for 20 s. The cell lysate was centrifuged at 17,000×g for 40 min at 4° C. Supernatant was incubated with Benzonase Nuclease (Merck Millipore) for 1 h at room temperature for DNA degradation, before being mixed with 500 μL GST resin (GE Healthcare Life Sciences, Sweden) and incubated on a rotating wheel at room temperature for 1 h. The sample was centrifuged at 500×g for 1 min to remove unbound protein in the supernatant. The resin was further washed with 50 resin volumes (RV) wash buffer (50 mM sodium phosphate, 500 mM NaCl, pH 7.5), with unbound protein removed by centrifugation as above. Bound protein was eluted from the resin with 3×1 RV elution buffer (50 mM Tris, 500 mM NaCl, 10 mM reduced glutathione, pH 8.0), collecting the supernatant by centrifugation as above.
The DNA-binding competition assay was performed in black 384-well plates, with mouse full length SOX18, or SOX-HMG fragments. All experiments were performed using a fluorescently-labelled Prox1-DNA element. Controls consisted of free labelled DNA (low FP milli-Polarization index, mP), labelled DNA in presence of protein (negative control, high mP), and labelled DNA and protein in presence of competing excess of unlabelled DNA (positive control, low mP)
The DNA-binding competition assay was performed in 25 uL, in black 384-well plates, using either 30 mM HEPES (N-2-Hydroxyethylpiperazine-N′-2-Ethanesulfonic Acid) (pH 7.5, with 100 mM KCl, 40 mM NaCl, 10 mM NH4OAc, […], 2 mM MgCl2, 0.5 mM EDTA, 0.01% NP-40) for mouse full length SOX18, or Tris-NaCl (10 mM Tris pH 8.0 and 100 mM NaCl) for SOX-HMG fragments. All experiments were performed using a 40 bp double-stranded Prox1-DNA element with 5′ fluorescein amidite (FAM) label (Sigma Proligo or InVitrogen). Optimum binding levels were obtained at 200 nM of mouse full length SOX18 and 60 nM of SOX-HMG fragment, in presence of 5 nM labelled DNA. Controls consisted of free labelled DNA (low FP milli-Polarization index, mP), labelled DNA in presence of protein (negative control, high mP), and labelled DNA and protein in presence of 400 time competing excess of unlabelled DNA (positive control, low mP). Depending on compound, final DMSO concentrations ranged from 2 to 3.33% v/v. After mixing protein, DNA probe and compound, plates were sealed and briskly agitated in the dark for 5 minutes at room temperature, 10 minutes at 37° C., and 30 minutes at room temperature, before reading fluorescence polarization on a Tecan M1000Pro (λexc=485 nm, λem=525 nm). All experiments were performed in triplicates.

Sequence of full-length mouse SOX18 (P43680 whole entry): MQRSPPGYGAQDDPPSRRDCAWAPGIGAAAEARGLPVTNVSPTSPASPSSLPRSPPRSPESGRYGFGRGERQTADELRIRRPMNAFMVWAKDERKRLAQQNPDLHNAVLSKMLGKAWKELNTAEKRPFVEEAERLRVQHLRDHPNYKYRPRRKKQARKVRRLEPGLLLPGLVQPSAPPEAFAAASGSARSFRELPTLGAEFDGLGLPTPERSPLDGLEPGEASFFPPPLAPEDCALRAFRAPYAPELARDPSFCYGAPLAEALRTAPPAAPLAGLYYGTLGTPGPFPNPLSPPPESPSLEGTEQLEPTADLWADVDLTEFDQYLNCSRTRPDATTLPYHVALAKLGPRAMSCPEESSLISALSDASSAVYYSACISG

FP IC50 ± SD	IC50 [µM]	SMILES
high micromolar range	341 ± 1.1	CCCCCCCCCCCCCc1cccc(O)c1C(=O)O [Sm2, 6-tridecyl salicylic acid]
high micromolar range	348 ± 1.1	CCCCCCCCCCCc1cccc(O)c1C(=O)O [Sm1, 6-undecyl salicylic acid]
